Columns and labels:
[1] = system: MYXV expressing a GFP reporter gene (vMyx-GFP) in human A549 cells; assay: MYXV reporter gene (GFP) expression in human A549 cells, fluorescence microscopy; format: cell-based, Myxoma virus; conditions: human A549 cells pre-treated 1 h with different concentrations; vMyx-GFP MOI 1.0, 0.1 or 0.01; images at 48 h and 72 h post infection
[2] = system: vMyx-GFP in human A549 cells; assay: MYXV progeny virus titration assay (A549 infection, titrated on RK13 cells); format: cell-based, Myxoma virus; conditions: for levels of progeny virus (MYXV titers): A549 cells
[3] = system: VACV expressing GFP (VACV-GFP) in human A549 cells; format: cell-based, vaccinia virus
[4] = system: VACV-GFP in human A549 cells; format: cell-based, vaccinia virus
[5] = system: HeLa cells; conditions: cited from earlier work
[6] = biological target: CRM1 (Homo sapiens, UniProt O14980); conditions: reported (Dickmanns et al. 2015); cited from earlier work
[7] = vMyx-GFP MOI 0.1 or 0.01, harvested after 48 h or 72 h, FIGS. 6A-6B
[8] = vMyx-GFP MOI 1.0, 0.1 or 0.01, inhibitor 0.001, 0.01 or 0.1 μM, harvested after 48 h, FIGS. 5A-5D

Sequence of CRM1 (O14980 whole entry): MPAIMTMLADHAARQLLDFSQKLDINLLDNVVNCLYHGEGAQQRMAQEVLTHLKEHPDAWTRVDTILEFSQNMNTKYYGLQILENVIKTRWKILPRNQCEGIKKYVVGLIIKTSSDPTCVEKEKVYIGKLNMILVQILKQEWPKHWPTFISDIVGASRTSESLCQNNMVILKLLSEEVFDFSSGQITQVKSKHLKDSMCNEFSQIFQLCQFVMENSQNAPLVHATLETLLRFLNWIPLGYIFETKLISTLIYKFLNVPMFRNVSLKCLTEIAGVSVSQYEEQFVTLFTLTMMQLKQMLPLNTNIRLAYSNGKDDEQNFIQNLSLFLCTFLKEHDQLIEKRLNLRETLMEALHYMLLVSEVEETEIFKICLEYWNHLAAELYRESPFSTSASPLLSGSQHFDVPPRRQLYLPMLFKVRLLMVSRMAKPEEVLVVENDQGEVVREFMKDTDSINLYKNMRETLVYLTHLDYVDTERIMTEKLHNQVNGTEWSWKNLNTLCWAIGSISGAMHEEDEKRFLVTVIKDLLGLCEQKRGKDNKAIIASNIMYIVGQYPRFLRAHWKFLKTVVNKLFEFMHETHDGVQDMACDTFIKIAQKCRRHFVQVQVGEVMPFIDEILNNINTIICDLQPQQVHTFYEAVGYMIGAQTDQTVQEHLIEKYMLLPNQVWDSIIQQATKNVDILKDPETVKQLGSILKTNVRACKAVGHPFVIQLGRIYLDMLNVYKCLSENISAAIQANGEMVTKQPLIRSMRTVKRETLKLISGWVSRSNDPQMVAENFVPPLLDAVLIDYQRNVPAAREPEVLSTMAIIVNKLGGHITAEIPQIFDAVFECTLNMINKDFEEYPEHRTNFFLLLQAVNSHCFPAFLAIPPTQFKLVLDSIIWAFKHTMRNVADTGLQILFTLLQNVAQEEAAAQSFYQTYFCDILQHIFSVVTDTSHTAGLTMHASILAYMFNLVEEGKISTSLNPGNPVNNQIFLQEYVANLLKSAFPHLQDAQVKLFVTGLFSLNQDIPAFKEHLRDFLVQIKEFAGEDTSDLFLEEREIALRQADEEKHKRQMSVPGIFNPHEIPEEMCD

| Compound | MYXV replication, as indicated by reporter gene expression (GFP fluorescence) [1] | levels of progeny virus (MYXV titers) [2, 7] | levels of progeny virus (MYXV titers) [2, 8] | progeny virus production enhancement compared to the other tested drugs ([2]; FIGS. 6A and 6B, MOI 0.1 or 0.01, 48 h or 72 h) | VACV replication, as indicated by reporter gene expression (GFP fluorescence) [3] | levels of progeny virus (VACV titers) [4] | concentration that arrests cells at the G1 phase [5] | concentration that shuts down CRM1-mediated nuclear protein export [6] |
| --- | --- | --- | --- | --- | --- | --- | --- | --- |
| CC(/C=C/C1CC=CC(=O)O1)=C\C(C)C/C=C/C(C)=C/C(C)C(=O)C(C)C(O)C(C)C/C(C)=C/C(=O)O (stereo not shown) [Anguinomycin A] | enhanced MYXV replication | higher levels of progeny virus | higher levels of progeny virus | – | – | – | – | – |
| CCC(=C/[C@H](C)C/C=C/C(C)=C/[C@@H](C)C(=O)[C@@H](C)[C@H](O)[C@@H](C)C/C(C)=C/C(=O)O)/C=C/[C@@H]1OC(=O)C=C[C@@H]1C [Leptomycin B] | enhanced MYXV replication | higher levels of progeny virus | higher levels of progeny virus | highest progeny virus production enhancement | enhanced VACV replication | higher levels of progeny virus | 50 pg/mL | – |
| Ratjadone A | enhanced MYXV replication | higher levels of progeny virus | higher levels of progeny virus | – | – | – | – | – |
| Anguinomycin | – | – | – | – | – | – | – | above 10 nM |
| CC(/C=C/C[C@@H](C)/C=C(C)/C=C/[C@@H]1OC(=O)C=C[C@@H]1C)=C\[C@@H](C)C(=O)[C@@H](C)[C@H](O)[C@@H](C)C/C(C)=C/C(=O)O [Leptomycin A] | enhanced myxoma virus (MYXV) replication | higher levels of progeny virus | higher levels of progeny virus | – | enhanced VACV replication | higher levels of progeny virus | – | – |

Reference: patent US12398375B2, “Methods for improved poxvirus yields” (priority 2018, dated 2025)
